Data published in patent US11718642B2, “Compositions and methods for treating CNS disorders” (Sage Therapeutics, Inc., priority 2018, dated 2023).

target: GABAA receptor; experiment: Steroid inhibition of [35S]-TBPS binding, rat brain cortical membranes; conditions: Table I-1, 3 nM [35S]-TBPS, in the presence of 5 mM GABA
Protocol: [^35S]-t-Butylbicyclophosphorothionate (TBPS) binding assays using rat brain cortical […] membranes in the presence of 5 mM GABA has been described (Gee et al, J. Pharmacol. Exp. Ther. 1987, 241, 346-353; Hawkinson et al, Mol. Pharmacol. 1994, 46, 977-985; Lewin, A. H et al., Mol. Pharmacol. 1989, 35, 189-194).
Briefly, cortices are rapidly removed following decapitation of carbon dioxide-anesthetized Sprague-Dawley rats (200-250 g). The cortices are homogenized in 10 volumes of ice-cold 0.32 M sucrose using a glass/teflon homogenizer and centrifuged at 1500×g for 10 min at 4° C. The resultant supernatants are centrifuged at 10,000×g for 20 min at 4° C. to obtain the P2 pellets. The P2 pellets are resuspended in 200 mM NaC/50 mM Na—K phosphate pH 7.4 buffer and centrifuged at 10,000×g for 10 min at 4° C. This washing procedure is repeated twice and the pellets are resuspended in 10 volumes of buffer. Aliquots ([…]) of the membrane suspensions are incubated with 3 nM [^35S]-TBPS and […] aliquots of test drug dissolved in dimethyl sulfoxide (DMSO) (final 0.5%) in the presence of 5 mM GABA. The incubation is brought to a final volume of 1.0 mL with buffer. Nonspecific binding is determined in the presence of […] unlabeled TBPS and ranged from 15 to 25%. Following a 90 min incubation at room temp, the assays are terminated by filtration through glass fiber filters (Schleicher and Schuell No. 32) using a cell harvester (Brandel) and rinsed three times with ice-cold buffer. Filter bound radioactivity is measured by liquid scintillation spectrometry. Non-linear curve fitting of the overall data for each drug averaged for each concentration is done using Prism (GraphPad). […] The concentration of test compound producing 50% inhibition (IC50) of specific binding and the maximal extent of inhibition (Imax) are determined for the individual experiments with the same model used for the overall data and then the means±SEM.s of the individual experiments are calculated.
Various compounds are or can be screened to determine their potential as modulators of [35S]-TBPS binding in vitro. These assays are or can be performed in accordance with the above.

SMILES | IC50
CC(=O)[C@H]1CC[C@H]2[C@@H]3COC4C[C@](C)(O)CC[C@@H]4[C@H]3CC[C@]12C (stereo in doubt) [I-A15, 1-((1S,3aS,3bR,5aS,7R,9aR,9bS,11aS)-7-hydroxy-7,11a-dimethylhexadecahydroindeno[4,5-c]chromen-1-yl)ethan-1-one] | 1 to 10 µM
C[C@@]1(O)CC[C@@H]2[C@H]3CC[C@]4(C)[C@@H](C(=O)Cn5cc(C#N)cn5)CC[C@H]4[C@@H]3CO[C@@H]2C1 [I-A17, 1-(2-((1S,3aS,3bR,5aS,7R,9aR,9bS,1aS)-7-hydroxy-7,11a-dimethylhexadecahydroindeno[4,5-c]chromen-1-yl)-2-oxoethyl)-1H-pyrazole-4-carbonitrile] | 1 to 10 µM

same assay, conditions: Table II-2, 3 nM [35S]-TBPS, in the presence of 5 mM GABA

SMILES | IC50
CC(=O)[C@H]1OC[C@H]2[C@@H]3CC[C@@H]4C[C@](C)(O)CC[C@@H]4[C@H]3CC[C@]12C [II-A11b, 1-((1S,3aS,3bR,5aR,7R,9aS,9bR,11aS)-7-hydroxy-7,11a-dimethylhexadecahydrophenanthro[1,2-c]furan-1-yl)ethan-1-one] | ≥ 10 µM
C[C@@]1(O)CC[C@H]2[C@H](CC[C@@H]3[C@@H]2CC[C@]2(C)[C@@H](C(=O)Cn4cc(C#N)cn4)OC[C@@H]32)C1 [II-A13b, 1-(2-((1S,3aS,3bR,5aR,7R,9aS,9bR,11aS)-7-hydroxy-7,11a-dimethylhexadecahydrophenanthro[1,2-c]furan-1-yl)-2-oxoethyl)-1H-pyrazole-4-carbonitrile] | 1 to 10 µM
CC(=O)[C@H]1COC[C@H]2[C@@H]3CC[C@@H]4C[C@](C)(O)CC[C@@H]4[C@H]3CC[C@]12C [II-B12, 1-((1R,4aS,4bR,6aR,8R,10aS,10bR,12aS)-8-hydroxy-8,12a-dimethylhexadecahydro-2H-naphtho[1,2-h]isochromen-1-yl)ethan-1-one] | 0.1 to 1 µM
C[C@@]1(O)CC[C@H]2[C@H](CC[C@@H]3[C@@H]2CC[C@]2(C)[C@@H](C(=O)Cn4cc(C#N)cn4)COC[C@@H]32)C1 [II-B14, 1-(2-((1R,4aS,4bR,6aR,8R,10aS,10bR,12aS)-8-hydroxy-8,12a-dimethylhexadecahydro-2H-naphtho[1,2-h]isochromen-1-yl)-2-oxoethyl)-1H-pyrazole-4-carbonitrile] | 0.1 to 1 µM
